Experimental data: ChEMBL document CHEMBL1144691, “Antiproliferative cassane diterpenoids of Cordyla madagascariensis ssp. madagascariensis from the Madagascar rainforest” (J Nat Prod, 2008)

Tested on: A2780
Assay: Antiproliferative activity against human A2780 cells
Assay type: functional, cell-based

Structure (SMILES) | IC50 [µM]
C[C@H]1c2ccoc2C[C@H]2[C@H]1CC[C@H]1[C@@](CO)(C(=O)O)CCC[C@]21C [CORDYLANE C] | > 60
CC(=O)OC[C@@]1(CO)CCC[C@]2(C)[C@H]3Cc4occc4[C@H](C)[C@@H]3C[C@@H](OC(C)=O)[C@@H]12 [CORDYLANE A] | 10
C=C1c2ccoc2C[C@H]2[C@H]1CC[C@H]1[C@@](CO)(C(=O)O)CCC[C@]21C [CORDYLANE D] | > 60
CC(=O)OC[C@]1(CO)CCC[C@]2(C)[C@H]3Cc4occc4[C@H](C)[C@@H]3C[C@@H](OC(C)=O)[C@@H]12 [CORDYLANE B] | 36
